Experimental data: patent US9017935B2, “HIV-1 latency model for high throughput screening” (priority 2005, dated 2015)

Experiments:
[1] = tested on: latent HIV-1 vector provirus in 24ST1NLESG cells; assay: SEAP assay for late gene expression, 24ST1NLESG cells; type: cell-based; conditions: for fold induction in SEAP activity: TNF-α 50 ng/ml
Method: (§1) FIG. 3. Reactivation of early and late viral gene expression in three clonal cell lines by TNF-α. (A) 19ST1NLESG, 24ST1NLESG, and 29ST1NLESG cells (10^6/ml) were exposed to TNF-α (50 ng/ml) and four days after gfp expressing cells were analyzed by flow cytometry. The left panels show the histograms of unstimulated cells, and the right panels represent the histogram analysis of TNF-α (50 ng/ml) stimulated cells. Numbers show the percentages of gfp positive cells. (B) SEAP in the cultured media of untreated and TNF-α (50 ng/ml) stimulated 19ST1NLESG, 24ST1NLESG, 29ST1NLESG cells two and four days post plating. (C) Fold induction of SEAP expression in 19ST1NLESG, 24ST1NLESG, and 29ST1NLESG cells (10^6/m1) after stimulation with TNF-α (50 ng/ml). Readings were taken on the second and fourth days post activation. Results shown are the means and standard deviations of one of three representative experiments.
FIG. 4. SEAP activation in 24ST1NLESG cells at different concentrations of TNF-α. SEAP synthesis by 24ST1NLESG cells (10^6/ml) four days post-activation with various concentrations (0.1 to 100 ng/ml) of TNF-α. The numbers above the bars show the fold induction of enzymatic activity calculated as ratio between the average value of RLU per sample induced cells compared to the mean RLU value of uninduced cells. RLU, relative light units. Results shown are the means and standard deviations of one of three representative experiments.
(§2) In order to provide a well characterized system to identify molecules that can activate latent virus, SupT1 cell clones harboring latent vector provirus were isolated. […] Even at 0.1 ng/ml of TNF-α induction could be detected yielding SEAP activity 4-fold above background (FIG. 4).
(§3) 1×10^6 or 1×10^5 cells from the clonal cell lines or mass populations of infected cells were resuspended in RPMI media with or without the activator. […] The relative light units (RLU) were measured with a tube luminometer (Turner Designs 20/20) or a MLX Microtiter Plate Luminometer (DYNEX Technologies).

[2] = tested on: latent HIV-1 vector provirus in NLE-S-G infected SupT1 cells; assay: Flow cytometry of GFP positive cells, mass population of NLE-S-G infected SupT1 cells; type: cell-based; conditions: mass population three weeks post-infection (2% before treatment), TNF-α 100 ng/ml, analyzed forty-eight hours after exposure
Description: FIG. 2. Infection of SupT1 cells by NLE^-S-G vector virus. (A) The upper panels depict uninfected SupT1 cells. The lower panels show SupT1 cells that have been infected with NLE-S-G virus. The phase contrast (left panels) and fluorescence microscopy (right panels) images were captured five days post-infection. (B) Flow cytometric analysis of SupT1 cells either mock infected or infected with NLE^−S-G analyzed at day five post-infection or three weeks post-infection. […] Three weeks post infection mass population of unsorted NLE^−S-G infected SupT1 cells (10^6 cells/ml) were stimulated with TNF-α (100 ng/ml). Cells were analyzed forty-eight hours after exposure. Numbers represent the percentages of gfp positive cells. (C) SEAP activity in the conditioned media from NLE^−S-G infected unsorted SupT1 cells (10^6 cells/ml) four days, three weeks and one month post-infection. Three weeks post-infection, a sample (10^6 cells/ml) of a mass population of NLE^−S-G infected SupT1 cells was treated with TNF-α (100 ng/ml) and analyzed four days post activation. RLU, relative light units.
The infected mass population of cells was next tested for its ability to establish a latent infection. The infected mass population of SupT1 cells was maintained in culture for one month. […] This was also reflected in the reduction of SEAP expression by the third week (FIG. 2C). […]

[3] = tested on: latent HIV-1 vector provirus in 29ST1NLESG cells; assay: SEAP assay for late gene expression, 29ST1NLESG cells; type: cell-based; conditions: TNF-α 50 ng/ml, day 2 post treatment
Method: as §1, with “Results shown are the means and standard deviations of one of three representative experiments.” left out
as §2, §3

[4] = tested on: latent HIV-1 vector provirus in 24ST1NLESG cells; assay: HIV-1 p24gag ELISA, 24ST1NLESG cells; type: cell-based; conditions: TNF-α 50 ng/ml
Method: FIG. 5. HIV-1 Gag p24 protein production in 24ST1NLESG cells. HIV-1 Gag p24 protein was detected in the cultured media of untreated and TNF-α (50ng/ml) treated 24ST1NLESG cells (10^6/ml) two and four days post-plating. Results shown are the means and standard deviations of one or two representative experiments.
To further characterize the 24ST1NLESG cell line, p24^gag expression was monitored using the ELISA after treatment with TNF-α (50 ng/ml) (FIG. 5).
HIV gag transfer assay. 1×10^6 SupT1 infected cells (latent mass population and clonal cell lines) were plated followed by harvesting supernatant one week later. Samples were collected both from TNF-α activated and untreated cells. They were passed through a 0.45-μm pore-size filter and used to inoculate […] 10^6 parental SupT1 cells for 24 h. The cells were washed twice with PBS and resuspended in fresh media. The same process was repeated once again with conditioned media from the targeted parental cells, and a new batch of SupT1 cells was treated. Passing the conditioned media over two sets of virgin SupT1 cells helps to assure that the carryover of gag protein in the samples will be eliminated and only the de novo synthesized protein, if present, will be assessed. […] Samples were considered virus free when the p24^gag concentration was below the detection threshold, which for this assay, was determined to be 10 pg/ml.

[5] = tested on: latent HIV-1 vector provirus in 24ST1NLESG cells; assay: Quantitative real-time RT-PCR of HIV-1 mRNA, 24ST1NLESG cells; type: cell-based; conditions: TNF-α 50 ng/ml, day 4 post-stimulation, normalized to β-actin
Method: FIG. 6. Real-time RT-PCR for relative quantification of HIV-1 mRNA levels in 24ST1NLESG cells before and after activation from latency. Quantitative real-time RT-PCR was performed with RNA isolated from 24ST1NLESG cells (10^6/ml) following one and four days after stimulation with TNF-α (50 ng/ml). cDNA was synthesized with polyT oligo, and the reactions were completed with primers to viral (Rev2) and cellular (β-actin) genes with SYBR green detection. The ‘Delta-delta method’ (PE Applied Biosystems) was used to compare the relative expression results (ΔCT) between the values obtained from the RNA samples from stimulated cells to the values obtained from RNA isolated from untreated cells. The results were normalized to the expression of β-actin. […]
The consistent reactivation of viral genes as evidenced by the pattern of expression of the three markers assayed correlated with an increase in the relative levels of total viral mRNA. The relative amount of total HIV-1 mRNA was determined by quantitative real-time PCR using primers to the second exon of rev (Rev2). […] Therefore, only the level of mature polyadenylated RNA was detected.
The relative ratio of viral RNA after stimulation of 24ST1NLESG latent cells was determined as described in the Examples using the relative RNA results obtained for the unstimulated 24ST1NLESG cells as a control. β-actin was used as a reference gene. […]

[6] = tested on: latent HIV-1 vector provirus in NLE-S-G infected SupT1 cells; assay: SEAP assay, mass population of NLE-S-G infected SupT1 cells; type: cell-based; conditions: mass population three weeks post-infection, TNF-α 100 ng/ml, four days post activation
Description: The infected mass population of cells was next tested for its ability to establish a latent infection. The infected mass population of SupT1 cells was maintained in culture for one month. […] This was also reflected in the reduction of SEAP expression by the third week (FIG. 2C). It was shown in previous studies that tumor necrosis factor (TNF)-α could activate HIV-1 virus production from latently infected cell lines (30).
1×10^6 or 1×10^5 cells from the clonal cell lines or mass populations of infected cells were resuspended in RPMI media with or without the activator. At the indicated day post plating, samples were taken to determine the activity of SEAP. The assay was performed using a SEAP Detection kit (BD Biosciences, Palo Alto, Calif.) according to the manufacturer's protocol. The relative light units (RLU) were measured with a tube luminometer (Turner Designs 20/20) or a MLX Microtiter Plate Luminometer (DYNEX Technologies).

[7] = tested on: latent HIV-1 vector provirus in 19ST1NLESG cells; assay: SEAP assay for late gene expression, 19ST1NLESG cells; type: cell-based; conditions: TNF-α 50 ng/ml, day 2 post treatment
Method: as §1, with “Results shown are the means and standard deviations of one of three representative experiments.” left out
as §2, §3

latent HIV-1 proviruses = conditions: background, literature; cited from earlier work
[8] = recently reported (ref. 43); cited from earlier work

Q: Which results are given for TNF-α?
A: SEAP activity above background ([1]; 0.1 ng/ml TNF-α, four days post-activation): 4 fold; fold induction in SEAP activity ([1]; day 2 post treatment): ~400 fold; fold induction in SEAP activity ([1]; day 4): approximately 600 fold; number of GFP-positive cells after treatment [2]: 19%; fold induction in SEAP activity [3]: ~150 fold; concentration of p24gag above background ([4]; 2 days post-activation): 50 fold; concentration of p24gag above background ([4]; 4 days post-activation): 100 fold; increase in relative ratio of viral RNA [5]: at least 100 fold; increase in SEAP activity [6]: 400 fold; fold induction in SEAP activity [7]: approximately 50 fold

Q: With CCCCCCCCCCCCCC(=O)O[C@@H]1[C@@H](C)[C@@]2(O)[C@@H](C=C(CO)C[C@]3(O)C(=O)C(C)=C[C@@H]23)[C@@H]2C(C)(C)[C@]12OC(C)=O [PMA, phorbol 12-myristate 13-acetate] as the molecule, how does the “activation of latent virus” value (latent HIV-1 proviruses) read?
A: could stimulate latent virus

Q: For CC(=O)O[C@@]12C[C@@H](C)[C@@]3(O)[C@@H](C=C(CO)C[C@]4(O)C(=O)C(C)=C[C@@H]34)[C@@H]1C2(C)C [prostratin], which “activation of latent virus” value (latent HIV-1 proviruses) is on record?
A: able to activate latent virus

Q: What about the cytotoxicity [8] of the same molecule?
A: significant cytotoxicity
